This note sets out measurements from patent US7141598B2, “Imidazole derivatives, production method thereof and use thereof” (Takeda Pharmaceutical Company, Ltd., priority 2000, dated 2006).

The target in one assay is T1, steroid C17,20-lyase (Rattus norvegicus, UniProt P11715).
T1 construct: The orchis was homogenized and centrifuged to prepare a microsome; from tissue; host or cells: testis (orchis) microsomes of 13-week-old male SD rat
T1 sequence (P11715 1-507): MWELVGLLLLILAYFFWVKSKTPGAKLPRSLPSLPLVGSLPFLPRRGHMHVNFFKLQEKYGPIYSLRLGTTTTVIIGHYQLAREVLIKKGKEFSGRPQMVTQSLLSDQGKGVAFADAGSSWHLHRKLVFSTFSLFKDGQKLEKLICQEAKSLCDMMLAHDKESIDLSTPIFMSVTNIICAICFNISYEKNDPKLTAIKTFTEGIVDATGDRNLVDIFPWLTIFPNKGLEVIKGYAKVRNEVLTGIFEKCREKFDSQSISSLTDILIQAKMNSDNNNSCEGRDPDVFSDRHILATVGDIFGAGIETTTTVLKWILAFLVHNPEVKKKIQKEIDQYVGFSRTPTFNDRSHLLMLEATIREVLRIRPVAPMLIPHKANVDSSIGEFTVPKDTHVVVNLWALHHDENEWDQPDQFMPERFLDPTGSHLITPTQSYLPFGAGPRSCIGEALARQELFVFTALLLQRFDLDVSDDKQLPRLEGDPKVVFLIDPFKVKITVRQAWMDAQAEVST
In words: Assay of steroid C17,20-lyase-inhibitory activity in rat (testis microsome). It counts as biochemical. The conditions noted are these: male SD rat orchis microsome, 10 nM [1.2-3H]-17α-hydroxyprogesterone, 37° C., 7 min; read-out: IC50 (steroid C17,20-lyase inhibition). How it is done: Assay of steroid C17,20-Lyase-Inhibitory Activity in Rat
The assay was performed according to The Prostate, Vol. 26, 140–150 (1995).
The orchis was removed from 13-week-old male SD rat. The orchis was homogenized and centrifuged to prepare a microsome. The [1.2-^3H]-17α-hydroxyprogesterone having a final concentration of 10 nM, NADPH solution and the test compound were dissolved in a 100 mM phosphate buffer solution (10 μl, pH 7.4). Microsome protein (7 μg/10 μl) was added and the mixture was incubated at 37° C. for 7 min. Ethyl acetate (40 μl) was added and the mixture was centrifuged, and the substrate and the product (androstenedione and testosterone) in the supernatant were separated by a silica gel thin layer chromatography (TLC). The spot was detected and quantitatively assayed by a BAS 2000 bioimage analyzer.

Another assay has as its target T2, human CYP3A4 (Homo sapiens, UniProt P08684).
T2 construct: purchased GENTEST
As to the kind of experiment: Assay of human CYP3A4-inhibitory activity. The assay is classed as biochemical. Particulars: testosterone 100 μM, human CYP3A4 10 pmol/ml, 37° C., 30 min; read-out: IC50 (CYP3A4 inhibition, 6β-hydroxytestosterone production). On the procedure: Assay of Human CYP3A4-Inhibitory Activity
Performed as in the following according to Journal of Biological Chemistry, vol. 256, 11937 (1983).
A phosphate buffer solution (50 mM, pH 7.4) containing testosterone (final concentration 100 μM, hereinafter the same), human CYP3A4 (10 pmol/ml, manufactured by GENTEST), NADPH producing system (0.5 mM NADP, 5 mM glucose-6-phosphate, 5 mM magnesium chloride, 1.5 units/ml glucose-6-phosphate dehydrogenase) and the test compound was incubated at 37° C. for 30 min. Acetonitrile was added to the reaction mixture and the mixture was stirred and centrifuged. The 6β-hydroxytestosterone in the obtained supernatant was analyzed by high performance liquid chromatography.

For assay [1], the system named is testosterone biosynthesis. As to the kind of experiment: Assay of inhibitory effect on testosterone biosynthesis in rats. Particulars: 25 mg/kg oral, male SD rat, serum testosterone 2 h after administration, relative to control group. It counts as in vivo. On the procedure:
Assay of Inhibitory Effect on Testosterone Biosynthesis in Rats
The test compound (25 mg/kg) was orally administered to 9-week-old male SD (Sprague Dawley) rat. Blood was taken at 2 h after administration of the compound and the concentration of testosterone in the obtained serum was assayed by radioimmunoassay. The proportion (T/C, %) of testosterone concentration of the test drug administration group relative to the testosterone concentration of the control group was calculated to determine testosterone synthesis-inhibitory activity.

SMILES strings stand for the structures. Bounds are passed on as bounds.

T2 sequence (P08684 whole entry): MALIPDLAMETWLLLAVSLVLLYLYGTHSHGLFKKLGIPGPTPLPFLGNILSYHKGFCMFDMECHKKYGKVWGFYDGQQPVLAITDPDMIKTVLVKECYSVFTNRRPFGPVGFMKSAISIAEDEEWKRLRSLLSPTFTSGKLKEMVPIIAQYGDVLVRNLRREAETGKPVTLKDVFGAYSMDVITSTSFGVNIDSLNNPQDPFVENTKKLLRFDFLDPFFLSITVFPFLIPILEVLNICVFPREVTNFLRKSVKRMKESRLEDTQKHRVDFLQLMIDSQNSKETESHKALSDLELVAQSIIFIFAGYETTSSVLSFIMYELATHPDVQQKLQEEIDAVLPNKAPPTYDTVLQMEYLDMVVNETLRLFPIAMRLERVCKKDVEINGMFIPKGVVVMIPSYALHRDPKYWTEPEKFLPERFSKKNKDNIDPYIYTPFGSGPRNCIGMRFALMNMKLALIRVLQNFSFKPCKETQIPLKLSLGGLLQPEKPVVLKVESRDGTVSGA

On to `CNC(=O)c1ccc2cc(C3(O)CCn4cncc43)ccc2c1` (single isomer, unassigned; (+)) [Example 11, (+)-6-(7-hydroxy-6,7-dihydro-5H-pyrrolo[1,2-c]imidazol-7-yl)-N-methyl-2-naphthamide], for which, on steroid C17,20-lyase, the concentration for half-maximal inhibition (IC50) (commonly the concentration that inhibits the measured activity by half) amounted to 0.048 µM. Take `OC1(c2cccc(-c3ccc(F)cc3)c2)CCn2cncc21` (stereo not shown) [Example 3, 7-(4′-fluoro[1,1′-biphenyl]-3-yl)-6,7-dihydro-5H-pyrrolo[1,2-c]imidazol-7-ol]: the 50% inhibitory concentration (IC50) at steroid C17,20-lyase is 0.01 µM; on human CYP3A4, 9.6 µM. Besides, the “inhibitory effect on testosterone biosynthesis (T/C, %)” value in assay [1] was found to be 4.4%.

For `OC1(c2ccc(-c3ccc(F)cc3)cc2)CCn2cncc21` (stereo not shown) [Example 4, 7-(4′-fluoro[1,1′-biphenyl]-4-yl)-6,7-dihydro-5H-pyrrolo[1,2-c]imidazol-7-ol], the values for the IC50 on steroid C17,20-lyase and on human CYP3A4 were 0.025 µM and over 10 µM, respectively.

Take `CNC(=O)c1ccc2cc(C3(O)CCn4cncc43)ccc2c1` (stereo not shown) [Example 5, 6-(7-hydroxy-6,7-dihydro-5H-pyrrolo[1,2-c]imidazol-7-yl)-N-methyl-2-naphthamide]: the IC50 on steroid C17,20-lyase was determined as 0.054 µM.
